Patent US11083714B2, “Selective anti-cancer agent effective for prevention and treatment” (Molecular International Research, Inc., priority 2018, dated 2021)
Entries after “also recorded” stand apart in the source; their conditions may differ. Like-named read-outs stand apart in the source and are kept apart here.

How the values were obtained:
[1] = mouse, in vivo
Protocol: To estimate the maximum tolerated dose of compounds 13-7-2 and 13-9-1 in mice, both compounds were dissolved in PBS and given to SCID mice by oral gavage.
Compound 13-7-2 was administered at a dose of 100 mg/kg, 150 mg/kg, or 200 mg/kg. Each dose group consisted of three mice.
Compound 13-9-1 was administered at a dose of 100 mg/kg, 150 mg/kg, or 200 mg/kg by oral gavage (three mice per dose group).
In a separate dose finding/toxicity test with compound 13-9-1, three mice received escalating doses of 50 mg/kg/day for 3 days, 100 mg/kg/day for 7 days, 200 mg/kg/day for 7 days, and 300 mg/kg/day for 3 days, given by oral gavage. Mice were monitored closely for toxic signs.

[2] = assay type: in vivo; settings: for time of death of one mouse: male, scid/scid, beige/beige, 48 hr
Protocol: A study with synthetic compounds 13-7-2 (flavopereirine) and 13-9-1 (de-ethylflavopereirine) was conducted to compare the toxicity of the two compounds in animals. The compounds were dissolved in phosphate buffered saline for administration. Both compounds were injected IP in male immunodeficient (homozygous recessive scid/scid, beige/beige) mice.
Compound 13-7-2 was injected at a dose of 100 mg/kg, 150 mg/kg, and 200 mg/kg in mice divided in groups of two. […] One mouse injected with 150 mg/kg died at 6 hr whereas one mouse injected with 200 mg/kg dose died at 24 hr. One mouse injected with 100 mg/kg dose died at 48 hr.
Compound 13-9-1 was injected at a dose of 100 mg/kg, 150 mg/kg, and 200 mg/kg in mice divided in groups of two.

LnCap = experiment: Cell Proliferation (anti-cancer), LnCap; assay type: cell-based, human
Protocol: (§1) The primary goal of synthesizing de-ethylflavopereirine (compound 13-9-1) was to generate a different compound that still retains the anti-cancer cell activity of flavopereirine (compound 13-7-2). Comparison of the effects of the two compounds on proliferation of a variety of cancer cells confirmed that this goal was achieved. For example, the effect of de-ethylflavopereirine on two human breast cancer cell lines and two human prostate cancer cell lines were analyzed.

RPWE-1 = experiment: Cell Proliferation (anti-cancer), RPWE-1; assay type: cell-based, human
Protocol: as §1

[3] = tested on: MIA PaCa, PANC-1, AsPc, BxPc; experiment: Growth inhibition, gemcitabine alone or plus de-ethylflavopereirine; assay type: cell-based; settings: four pancreatic cancer cell lines
[4] = Homo sapiens, after any period of treatment, read-out: Minimum Dose (IC50) needed to decrease growth 50% or greater versus control

CCc1ccc2c3[nH]c4ccccc4c3cc[n+]2c1 [Compound 13-7-2, flavopereirine]
tolerated dose, oral administration ([1]; SCID): up to 100 mg/kg
adverse effects observed ([1]; SCID, po, 100 mg/kg, 48 hr): No signs of distress were observed in the 100 mg/kg group of mice with the exception of bradycardia 15 min after the administration of the compound in one mouse
deaths ([1]; SCID, po, 150 mg/kg, 48 hr): two mice died 15 min after administration of the compound and one mouse died 48 hr after administration of the compound
deaths ([1]; SCID, po, 200 mg/kg, 48 hr): One mouse from this group died 24 hr after the administration of the compound
signs of distress ([1]; po, 200 mg/kg): two mice exhibited signs of distress which included rapid breathing, bradycardia, shut eyes, and lethargy
mice that died after IP injection ([2]; all doses tested (100, 150, 200 mg/kg)): 50%
time of death of one mouse ([2]; mouse, in vivo, ip, 100 mg/kg): 48 h
time of death of one mouse ([2]; mouse, in vivo, ip, 150 mg/kg): 6 h
time of death of one mouse ([2]; mouse, in vivo, ip, 200 mg/kg): 24 h
adverse effects observed ([2]; mouse, in vivo, ip, 100 mg/kg): swollen abdomen
Growth Inhibition (LnCap): Yes
IC50 (LnCap; [4]): 10 µM
Growth Inhibition (RPWE-1): Yes
IC50 (RPWE-1; [4]): 10 µM

Nc1ccn([C@@H]2O[C@H](CO)[C@@H](O)C2(F)F)c(=O)n1 [gemcitabine]
response of the cell lines to the drug alone [3]: all four of the pancreatic cancer cell lines are resistant; also recorded: some resistance
